Three molecules from patent publication US20150031892A1, “SPHINGOLIPID METABOLITE MIMETICS” (Zhejiang University, priority 2012, published 2015) can be followed below.

Molecules are shown by their SMILES. Some results are limits rather than exact numbers.

One may read the IC50 as the midpoint of a concentration-inhibition curve.

Common to all, as to assay type: cell-based
The subject of assay [1] is SA. The assay is described as follows: MTT cytotoxicity assay, SA (pancreatic cancer as headed). In short, it runs like this:
(§1)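 Cells seeded at 7000/well for 24 h, then exposed to sphingolipid metabolite mimetics at final 0 to 200 μM. MTT added for 4 h at 37° C; formazan dissolved in DMSO and absorbance read at 570 nm.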

The test system of assay [2] is HepG2. The assay is described as follows: MTT cytotoxicity assay, HepG2 (liver cancer). Particulars: Homo sapiens. The method in brief:
as §1
(In general: Tetrazolium dyes change colour on reduction, which living cells bring about.)

For assay [3], the system named is MCF-7. As to the kind of experiment: MTT cytotoxicity assay, MCF-7 (breast cancer). Particulars: Homo sapiens, MCF7; Breast Cancer MCF-7, MTT. In short, it runs like this: as §1
Assay [4] has as its system SW480. As to the kind of experiment: MTT cytotoxicity assay, SW480 (colon cancer). The settings on record: Homo sapiens.
Assay [5] relates to A431. As to the kind of experiment: MTT cytotoxicity assay, A431 (squamous carcinoma). Particulars: Homo sapiens, A-431. The method in brief: as §1
In assay [6] the test system is SiHa. As to the kind of experiment: MTT cytotoxicity assay, SiHa (ovarian cancer as headed). Particulars: Homo sapiens, Cervical Cancer SiHa.
The test system of assay [7] is multiple types of cancer cells. As to the kind of experiment: MTT cytotoxicity, statements over several cancer cell lines. Particulars: for IC50: all five cell lines tested, read-out: IC50 values; for direct anti-cancer cell activity: summary statement. Here is the method: Cell survival after exposure to the sphingolipid metabolite mimetics was examined by MTT cytotoxicity assay. HepG2, A431, HeLa, MCF-7 and SA cells (7000 cells/well) were seeded in each well of a 96-well plate for 24 h. New medium was added to give final concentrations of 0 to 200 μM of the sphingolipid metabolite mimetics. Then, 50 μl of 1 mg/ml 3-(4,5-dimethylthiazol-2-yl)-2,5-diphenyltetrazolium bromide (MTT, Sigma-Aldrich Chemical) was added to each well for 4 h incubation at 37° C. The purple formazan formed was then solubilized by DMSO and absorbance at 570 nm was read by a microplate reader (Molecular Devices, Sunnyvale, Calif.).

Assay [8] has as its system SW620. As to the kind of experiment: MTT cytotoxicity assay, SW620 (colon cancer). Particulars: Homo sapiens, SW-620.
In assay [9] the test system is MES-SA cells. As to the kind of experiment: Apoptosis assay, Hoechst 33342 fluorescence staining. The settings on record: doses of their IC50 for 8 h. The method, then:
The cells were then washed with PBS and stained with Hoechst 33342 (from sigma chemical) for 20 min in the dark. Morphologic changes were analyzed under a fluorescence microscope. The experiment was repeated three times.

Take `CCCCCCCCCCCCCCNC(=O)[C@@H](NC(=O)Cc1c[nH]c2ccccc12)[C@@H](C)O` [NZJU28, N-((2S,3R)-3-hydroxy-1-oxo-1-(tetradecylamino)butan-2-yl)-indole-3-acetic acid amide]: the IC50 is 11.5 ± 0.97 µM in assay [1]; 21.1 ± 1.92 µM in assay [2]; 6.81 ± 1.73 µM in [3]; 20 µM in [4]; 15.5 ± 2.95 µM in assay [5]; 4.8 ± 0.29 µM in assay [6]. The results for the IC50 in [7] and in assay [8] were less than 30 µM and 22 ± 0.71 µM, respectively. For the same molecule, the “direct anti-cancer cell activity” value in assay [7] was “direct anti-cancer cell activity”. Also, the “apoptotic cell death, fluorescent micrographs (FIG. 30)” value (“apoptotic cell death … (FIG. 30)” below) in [9] is reported as “apoptotic cell death”.

Consider `CCCCCCCCCCCCNC(=O)[C@@H](NC(=O)c1cc2ccccc2o1)[C@@H](C)O` [NZJU36, N-((2S,3R)-3-hydroxy-1-oxo-1-(dodecylamino)butan-2-yl)-benzofuran-2-carboxamide], for which the IC50 in assay [1] is 10.5 ± 1.31 µM; in [2], 22.9 ± 1.18 µM; in [3], 20.9 ± 0.54 µM; in assay [4], 21.4 µM; in assay [5], 20 ± 0.9 µM; in assay [6], 12.8 ± 2.07 µM. In addition, the IC50 in [7] was less than 30 µM; in [8], 21.3 ± 1.28 µM. Also, in [7], the “direct anti-cancer cell activity” value is recorded as “direct anti-cancer cell activity”. In addition, the “apoptotic cell death … (FIG. 30)” value in assay [9] is “apoptotic cell death”.

Take `CCCCCCCCCCCCCCNC(=O)[C@@H](NC(=O)c1cc2ccccc2o1)[C@@H](C)O` [NZJU37, N-((2S,3R)-3-hydroxy-1-oxo-1-(tetradecylamino)butan-2-yl)-benzofuran-2-carboxamide]: the half-maximal inhibitory concentration (IC50) in [1] worked out at 9.61 ± 0.56 µM; in assay [2], 23.4 ± 1.19 µM; in [3], 23.4 ± 1.19 µM; in assay [4], 22.8 µM; in assay [5], 20.09 ± 0.16 µM; in assay [6] it was 14.2 ± 1.84 µM. Moreover, the results for the IC50 in [7] and in [8] were less than 30 µM and 26.7 ± 2.48 µM, respectively. The “direct anti-cancer cell activity” value in assay [7] is “direct anti-cancer cell activity”. Besides, the “apoptotic cell death … (FIG. 30)” value in assay [9] is on record as “apoptotic cell death”.
